Among the data in patent US12606572B2, “Substituted heterocycles and uses thereof” (Kumquat Biosciences Inc., priority 2023, dated 2026) are IC50 values, retold here.

One assay has as its target T1, KRAS WT (Homo sapiens, UniProt P01116).
T1 construct: made in house; host or cells: E. coli BL21 (DE3)
The experiment in a line: HTRF assay, interaction of GST-tagged K-Ras with His-tagged hSOS1 (KRAS wildtype). The format is biochemical. Conditions: <500 nM, read-out: Inhibition of KRAS WT (IC50). In short, it runs like this:
(§1)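 GST-K-Ras (G12S or WT) with anti-GST-Eu donor mixed with His-hSOS1 and anti-6His-XL665 acceptor in ~5 mM HEPES pH 7.4, 150 mM NaCl, 1 mM DTT, 0.05% BSA, 0.0025% Igepal. After ~10 min or longer, HTRF 665/620 nm ratio read.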

A further assay addresses T2, KRAS G12S (Homo sapiens, UniProt P01116, G12S).
T2 construct: made in house; host or cells: E. coli BL21 (DE3)
Kind of assay: HTRF assay, interaction of GST-tagged K-Ras with His-tagged hSOS1 (KRAS G12S). The format is biochemical. Conditions: <500 nM, read-out: Inhibition of KRAS G12S (IC50). Put shortly: as §1

T1 sequence (P01116 1-188 isoform P01116-2): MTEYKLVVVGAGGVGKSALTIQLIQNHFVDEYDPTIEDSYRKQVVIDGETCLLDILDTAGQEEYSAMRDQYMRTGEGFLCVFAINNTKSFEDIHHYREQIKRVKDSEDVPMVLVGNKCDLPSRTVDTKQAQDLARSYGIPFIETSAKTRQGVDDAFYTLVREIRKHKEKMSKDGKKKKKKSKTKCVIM
T2 sequence (P01116 1-188 isoform P01116-2 G12S): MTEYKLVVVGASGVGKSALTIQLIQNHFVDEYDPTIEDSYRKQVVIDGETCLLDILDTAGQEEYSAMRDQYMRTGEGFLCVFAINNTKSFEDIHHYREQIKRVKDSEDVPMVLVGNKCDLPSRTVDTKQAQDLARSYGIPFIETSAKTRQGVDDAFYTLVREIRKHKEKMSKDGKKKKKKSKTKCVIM

For the molecule `N#Cc1c(N)sc2c(F)ccc(-c3c(Cl)c4c5c(nc(OC[C@@]67CCCN6C[C@H](F)C7)nc5c3F)N(CC3CN(C(=O)C5=CCCC5)C3)CCO4)c12` [Compound 462, 2-amino-4-(8-chloro-4-((1-(cyclopent-1-ene-1-carbonyl)azetidin-3-yl)methyl)-10-fluoro-2-(((2R,7aS)-2-fluorotetrahydro-1H-pyrrolizin-7a(5H)-yl)methoxy)-5,6-dihydro-4H-[1,4]oxazepino [5,6,7-de]quinazolin-9-yl)-7-fluorobenzo[b]thiophene-3-carbonitrile], the IC50 at KRAS WT and at KRAS G12S was < 500 nM throughout.
With `N#Cc1c(N)sc2c(F)ccc(-c3c(Cl)c4c5c(nc(OC[C@@]67CCCN6C[C@H](F)C7)nc5c3F)N(CC3(O)CN(C(=O)n5ccnc5)C3)CCO4)c12` [Compound 463, 2-amino-4-(8-chloro-10-fluoro-2-(((2R,7aS)-2-fluorotetrahydro-1H-pyrrolizin-7a(5H)-yl)methoxy)-4-((3-hydroxy-1-(1H-imidazole-1-carbonyl)azetidin-3-yl)methyl)-5,6-dihydro-4H-[1,4]oxazepino [5,6,7-de]quinazolin-9-yl)-7-fluorobenzo[b]thiophene-3-carbonitrile], the IC50 on KRAS WT and on KRAS G12S was < 500 nM each time.
Turning to `C[C@@H]1[C@H](N2c3nc(OC[C@@]45CCCN4C[C@H](F)C5)nc4c(F)c(-c5ccc(F)c6sc(N)c(C#N)c56)c(Cl)c(c34)OC[C@@H]2C)CCN1C(=O)n1cnc(C#N)c1` [Compound 406, 1-((2R,3R)-3-((5S)-9-(2-amino-3-cyano-7-fluorobenzo[b]thiophen-4-yl)-8-chloro-10-fluoro-2-(((2R,7aS)-2-fluorotetrahydro-1H-pyrrolizin-7a(5H)-yl)methoxy)-5-methyl-5,6-dihydro-4H-[1,4]oxazepino [5,6,7-de]quinazolin-4-yl)-2-methylpyrrolidine-1-carbonyl)-1H-imidazole-4-carbonitrile], the IC50 at KRAS WT and on KRAS G12S was < 500 nM throughout.
On to `C[C@@H]1[C@H](N2CCCOc3c(Cl)c(-c4ccc(F)c5sc(N)c(C#N)c45)c(F)c4nc(OC[C@@]56CCCN5C[C@H](F)C6)nc2c34)CCN1C(=O)n1cnc(F)n1` [Compound 448, 2-amino-4-(9-chloro-11-fluoro-4-((2R,3R)-1-(3-fluoro-1H-1,2,4-triazole-1-carbonyl)-2-methylpyrrolidin-3-yl)-2-(((2R,7aS)-2-fluorotetrahydro-1H-pyrrolizin-7a(5H)-yl)methoxy)-4,5,6,7-tetrahydro-[1,5]oxazocino [4,3,2-de]quinazolin-10-yl)-7-fluorobenzo[b]thiophene-3-carbonitrile], for which the IC50 at KRAS WT and at KRAS G12S was < 500 nM throughout.
In the case of `N#CCC1([C@@H]2[C@H](CN3CCOc4c(Cl)c(-c5ccc(F)c6sc(N)c(C#N)c56)c(F)c5nc(OC[C@@]67CCCN6C[C@H](F)C7)nc3c45)CN2C(=O)n2ccnc2)CC1` [Compound 442, 2-amino-4-(8-chloro-4-(((2S,3R)-2-(1-(cyanomethyl)cyclopropyl)-1-(1H-imidazole-1-carbonyl)azetidin-3-yl)methyl)-10-fluoro-2-(((2R,7aS)-2-fluorotetrahydro-1H-pyrrolizin-7a(5H)-yl)methoxy)-5,6-dihydro-4H-[1,4]oxazepino [5,6,7-de]quinazolin-9-yl)-7-fluorobenzo[b]thiophene-3-carbonitrile], the IC50 on KRAS WT and on KRAS G12S was < 500 nM each time.
As for `N#Cc1c(N)sc2c(F)ccc(-c3c(Cl)c4c5c(nc(OC[C@@]67CCCN6C[C@H](F)C7)nc5c3F)N(CC3CN(C(=O)/C=C/C(F)F)C3)CCO4)c12` [Compound 423, 2-amino-4-(8-chloro-4-((1-((E)-4,4-difluorobut-2-enoyl)azetidin-3-yl)methyl)-10-fluoro-2-(((2R,7aS)-2-fluorotetrahydro-1H-pyrrolizin-7a (5H)-yl)methoxy)-5,6-dihydro-4H-[1,4]oxazepino[5,6,7-de]quinazolin-9-yl)-7-fluorobenzo[b]thiophene-3-carbonitrile], the IC50 at KRAS WT and on KRAS G12S was < 500 nM in each case.
